# Where two headings read alike, the source gives them in different places. Positions of bridges follow the written chain, without caps; N, C: chain ends. Non-standard residues stand in square brackets, D forms with d. Residues, ends and D or L forms follow the SMILES beside them. *: point of attachment. NMePhe(4-NMe2) = CN[C@@H](Cc1ccc(N(C)C)cc1)C(=O)O; Pip(4-oxo) = O=C1CCN[C@H](C(=O)O)C1; Picolinoyl(3-OH) = O=C(c1ncccc1O)*; Phg = N[C@H](C(=O)O)c1ccccc1; dAbu = CC[C@@H](N)C(=O)O
# Tested on: Trichomonas vaginalis G3 trophozoites
# Conditions: for T.vaginalis_Absorbance_Rep1: replicate 1, raw absorbance; for T.vaginalis_Absorbance_Rep2: replicate 2, raw absorbance; for T. vaginalis HTS result in words: 384-well, 25 μL, 10,000 cells/mL, 48 h, biological duplicates, hit = >50% inhibition
# [1] = HTS replicate 1, parasite screen 1 µg/mL
# [2] = HTS replicate 2, parasite screen 1 µg/mL
# [3] = HTS, parasite screen at 1 µg/mL, replicate 1
# [4] = HTS, parasite screen at 1 µg/mL
# [5] = HTS, parasite screen at 1 µg/mL, replicate 2
Compound,T.vaginalis_%inb_Rep1 [1] [%],T.vaginalis_%inb_Rep2 [2] [%],T.vaginalis_%inb_Rep1 [3] [%],T.vaginalis_Absorbance_Rep1 [4],T.vaginalis_%inb_Rep2 [5] [%],T.vaginalis_Absorbance_Rep2 [4],T. vaginalis HTS result in words
CCC/C=C/C=C/[C@@H]1C[C@@H](O)[C@@H](O)C(=O)[C@H]1CO [Palitantin],13.59,14.56,,,,,
C=C[C@]1(C)C[C@@H](O)[C@]2(C)[C@H](C)CC[C@]3(CCC(=O)[C@H]32)[C@@H](C)[C@@H]1O [Mutilin],12.02,13.21,,,,,
COc1ccc([C@@]2(O)c3c(ccc(/C=C/[C@]4(C)CCC(C)(C)CO4)c3O)NC(=O)[C@@H]2OC)cc1 [Penigequinolone A],16.23,11.87,,,,,
C[C@@H]1C=C2C(=O)O[C@@H]3CC[C@H](C1)[C@]23O [Galiellalactone],,,19.07,1.078,5.71,0.724,
C/C=C(/C)c1cc(O)c(C)c2c1Oc1c(C)c(O)cc(/C(C)=C\C)c1C(=O)O2 [Folipastatin],,,12.58,0.95,14.11,0.855,
CC(C)=CC(=O)CC(C)c1ccc(C)cc1 (stereo not drawn) [Turmerone],,,9.33,,14.44,,
COc1cc2c(oc(=O)c3cc(C)cc(OC)c32)c2c(C3OC(C(C)O)C(O)C3O)ccc(O)c12 (stereo not drawn) [Gilvocarcin M],,,10.14,0.902,13.92,0.852,
CCCCCCC(C)C/C(C)=C\C(/C=C(C)/C=C/C(O)C(C)(C)c1cc(O)c([C@@H]2O[C@H](CO)C[C@H](O)[C@H]2O)c(=O)o1)CO (stereo partly drawn) [Fusapyrone],,,13.39,0.966,13.21,0.841,
CC1(C)CCC[C@]2(C)[C@@H](CO)C(CO)=CC[C@@H]12 [Drimendiol],,,13.84,0.966,11.64,0.781,
CCC1OC2(CCC1C)CC1CC(CC=C(C)CC(C)C=CC=C3COC4C(O)C(C)=CC(C(=O)O1)C34O)O2 (stereo not drawn) [Milbemycin A4],12.17,12.96,,,,,
CN(C)C1C(=O)C(C(N)=O)=C(O)C2(O)C(=O)C3=C(O)c4c(O)cccc4C(C)(O)C3C(O)C12 (stereo not drawn) [Epioxytetracycline],,,13.46,0.959,17.43,0.861,
CC(=O)c1c(O)cc(O)c(C(C)=O)c1O [Diacetylphloroglucinol],,,9.32,0.882,10.70,0.768,
CC1(C)CC[C@]2(C)CC[C@]3(C)C4=CC[C@H]5C(C)(C)[C@@H](O)CC[C@]5(C)[C@H]4CC[C@@]3(C)[C@@H]2C1 [Multiflorenol],10.55,11.42,,,,,
CC1=C[C@H]2C(=O)O[C@H]3C[C@@H](C/C=C(\C)[C@@H](O)[C@@H](C)/C=C/C=C4\CO[C@H]([C@@H]1O)[C@@]42O)O[C@@]1(C=C[C@H](C)[C@@H](C2CCCCC2)O1)C3 [Doramectin aglycone],,,13.62,0.962,12.44,0.792,
CC(=O)OC1CCC2(C)C3=C(CCC2C1(C)C)C1(C)CCC(C(C)CCC=C(C)C)C1(C)CC3 (stereo not drawn) [Euphol acetate],,,13.30,0.956,13.02,0.8,
C/C=C\C=C\[C@@H]1O[C@](O)([C@H](CO[C@H]2C[C@@H](OC)[C@@H](O[C@@H]3C[C@@H](OC)[C@@H](O[C@H]4C[C@H](OC)[C@H](O)[C@H](C)O4)[C@H](C)O3)[C@@H](C)O2)C(=O)NC/C=C/C=C(\C)[C@@H](OC)[C@H](C)[C@H]2C[C@H](O)[C@H](/C=C/C=C/C=C/C(=O)O)O2)[C@H](OC(=O)Cc2ccccc2)[C@H](O)C1(C)C [Phenelfamycin E],11.16,10.07,,,,,
CC[C@H]1NC(=O)[C@@H](NC(=O)c2ncccc2O)[C@@H](C)OC(=O)[C@H](c2ccccc2)NC(=O)[C@@H]2CC(=O)CCN2C(=O)[C@H](Cc2ccc(N(C)C)cc2)N(C)C(=O)[C@@H]2CCCN2C1=O [Virginiamycin B] ({Picolinoyl(3-OH)}-T[dAbu]P[NMePhe(4-NMe2)][Pip(4-oxo)][Phg]; ester 1-C),,,8.39,,11.09,,
CC1=C[C@H]2C(=O)O[C@H]3C[C@@H](C/C=C(\C)C[C@@H](C)/C=C/C=C4\CO[C@H](/C1=N/O)[C@@]42O)O[C@@]1(CC[C@H](C)[C@@H](C)O1)C3 [Milbemycin A3 oxime],12.78,11.35,,,,,
C[C@@H]1[C@H](O)[C@@H](C)/C=C/C=C/CC/C=C/C=C/C=C/C=C/[C@H](O[C@@H]2O[C@H](C)[C@@H](O)[C@H](N)[C@@H]2O)C[C@@H]2O[C@](O)(C[C@@H](O)[C@H](O)CC[C@@H](O)C[C@@H](O)C[C@@H](O)CC(=O)O[C@H]1C)C[C@H](O)[C@H]2C(=O)O [Nystatin A1],11.66,11.87,,,,,
COc1c(OC)c(-c2c[nH]c3ccc(O)cc23)c(OC)c(OC)c1-c1c[nH]c2ccccc12 [Petromurin C],7.91,12.64,,,,,

Compound,T.vaginalis_%inb_Rep1 [1] [%],T.vaginalis_%inb_Rep2 [2] [%],T.vaginalis_%inb_Rep1 [3] [%],T.vaginalis_Absorbance_Rep1 [4],T.vaginalis_%inb_Rep2 [5] [%],T.vaginalis_Absorbance_Rep2 [4],T. vaginalis HTS result in words
COc1cc(CC2C(=O)OCC2Cc2ccc3c(c2)OCO3)ccc1O (stereo not drawn) [Pluviatolide],12.12,14.37,,,,,
CN1CCC2(c3cccc4c3NC3N(C)CCC43c3cccc4c3NC3N(C)CCC43C34CCN(C)C3Nc3c(C56CCN(C)C5Nc5ccccc56)cccc34)c3ccccc3NC12 (stereo not drawn) [Psychotridine],9.23,6.15,,,,,
CC1=CC[C@H]2C(C)(C)CCC[C@]2(C)[C@H]1CO [Drimenol],,,14.49,0.978,11.14,0.774,
"CO[C@H]1/C=C\C=C(/C)C(=O)NC2=CC(=O)C(NCCN(C)C)=C(C[C@@H](C)C[C@H](OC)[C@H](O)[C@@H](C)/C=C(\C)[C@@H]1OC(N)=O)C2=O [17-DAAG, 17-dimethylaminoethylamino-17-demethoxygeldanamycin, reference compound]",,,,,,,partial hits
CC(=O)OC[C@@]1(C)[C@@H]2C[C@H](OC(C)=O)[C@@]3(C)Oc4cc(-c5ccccc5)oc(=O)c4[C@H](O)[C@@H]3[C@@]2(C)CC[C@@H]1OC(C)=O [Phenylpyropene A],13.03,14.11,,,,,
COc1cc(O)c2c(=O)oc3c(O)c(OC)cc(C)c3c2c1 [Graphislactone A],,,13.44,0.967,16.48,0.892,
"COc1cccc2nc3c(OC)cccc3nc12 [Dimethoxyphenazine, 1,6-]",,,12.87,0.948,14.10,0.815,
"O=C(O)c1c(=O)cccc2ssc12 [tropodithietic acid, reference compound]",,,11.01,,97.50,,partial hits
CC[C@@H]1CCN[C@H](C(=O)N[C@@H]([C@H]2O[C@H](SC)[C@H](O)[C@@H](O)[C@H]2O)[C@H](C)Cl)C1 [Pirlimycin],5.02,5.77,,,,,
C=C1CC[C@H]2C(C)(C)CCC[C@]2(C)[C@H]1C[C@@]12C[C@H]3C(=O)N[C@@H](CC(C)C)C(=O)N3[C@@H]1Nc1ccccc12 [Drimentine A],,,15.46,0.996,4.92,0.688,
Cc1c2c(c(O)c3c(O)cccc13)C(=O)C1(O)C(O)=C(C(N)=O)C(=O)C(N(C)C)C1C2.Cl (stereo not drawn) [Epianhydrotetracycline hydrochloride],,,8.78,0.872,1.74,0.644,
CC(=O)OCc1c(O)c2c(c3c1OC(=O)c1c(C)cc(O)c(C=O)c1O3)C(O)OC2=O (stereo not drawn) [Galbinic acid],,,15.37,1.005,12.89,0.836,
CCC1NC(=O)C(NC(=O)c2ncccc2O)C(C)OC(=O)C(c2ccccc2)NC(=O)C2CC(=O)CCN2C(=O)C(Cc2ccccc2)N(C)C(=O)C2CCCN2C1=O (stereo not drawn) [Virginiamycin S1],,,9.96,,3.72,,
CCc1c(O)c(C)c(C(C)CC)oc1=O (stereo not drawn) [Germicidin A],,,11.41,0.927,12.19,0.825,
Enniatin A,,,,0.983,,0.865,
"COc1ccc2nc(C(=O)N[C@@H]3COC(=O)[C@H](C(C)(C)O)N(C)C(=O)CN(C)C(=O)CNC(=O)[C@@H]4[C@@H](OC(C)=O)CC=NN4C(=O)[C@H](NC(=O)c4nc5ccc(OC)cc5cc4O)COC(=O)[C@H](C(C)(C)O)N(C)C(=O)CN(C)C(=O)CNC(=O)[C@@H]4[C@@H](OC(C)=O)CC=NN4C3=O)c(O)cc2c1 [luzopeptin A, reference compound]",,,,,,,partial hits
O=c1c2cccn2c(=O)c2cccn12 [Pyrocoll],15.47,11.29,,,,,
"COC(=O)C1(O)CC2OC1(C)n1c3ccccc3c3c4c(c5c6ccccc6n2c5c31)C(=O)NC4 (stereo not drawn) [K252A, reference compound]",,,,,,,active analogues
Nc1cc2nc3ccccc3oc-2cc1=O [Questiomycin A],16.02,12.32,,,,,

# — publication PMC7897990, “TriTOX: A novel Trichomonas vaginalis assay platform for high-throughput screening of compound libraries” (International Journal for Parasitology: Drugs and Drug …, 2021)
